Converted amounts (≈) assume the structure as drawn. The source made the active and inactive calls. No cut-off for these calls is given here.
What was measured:
[1] = test system: Mus musculus; test: Antiinflammatory activity against imiquimod-induced Balb/c mouse skin inflammation model assessed as reduction in skin thickening at 5 to 20 mg/kg, po BID for 13 days; type: functional, organism-based; details: dose 5-20 mg/kg, time 13.0 day
[2] = test system: Mus musculus; test: Antiinflammatory activity against imiquimod-induced Balb/c mouse skin inflammation model assessed as reduction in severity index score at 20 mg/kg, po BID for 13 days; type: functional; design: scale not given: the % may be the effect or the level left; details: time 13 day
[3] = test system: Mus musculus; test: Antiinflammatory activity against imiquimod-induced Balb/c mouse skin inflammation model assessed as decrease in erythema at 5 to 20 mg/kg, po BID for 13 days; type: functional, organism-based; details: dose 5-20 mg/kg, time 13.0 day
[4] = Volume of distribution at steady state in mouse at 0.3 mg/kg, iv measured at 2 to 1440 mins by LC-MS analysis; type: ADME, organism-based; details: in vivo, time 2-1440 min, read-out: Vdss
[5] = AUC (0 to t) in mouse at 0.3 mg/kg, iv measured at 2 to 1440 mins by LC-MS analysis; type: ADME, organism-based; design: time lower 2 min, dose 0.3 mg/kg, time upper 1440 min, route iv; details: in vivo
[6] = Cmax in mouse at 0.3 mg/kg, iv measured at 2 to 1440 mins by LC-MS analysis; type: ADME, organism-based; design: time 2-1440 min, dose 0.3 mg/kg, route iv; details: in vivo
[7] = AUC (0 to infinity) in mouse at 1 mg/kg, po measured at 5 to 1440 mins by LC-MS analysis; type: ADME, organism-based; design: dose 1 mg/kg, time 5-1440 min, route po; details: in vivo
[8] = Oral bioavailability in mouse at 1 mg/kg measured at 5 to 1440 mins by LC-MS analysis; type: ADME, organism-based; details: in vivo, time 5-1440 min
[9] = AUC (0 to t) in mouse at 1 mg/kg, po measured at 5 to 1440 mins by LC-MS analysis; type: ADME, organism-based; design: time 5-1440 min, dose 1 mg/kg, route po; details: in vivo
[10] = molecular target: T1, Nuclear receptor ROR-beta (Homo sapiens, UniProt Q92753); test: Inhibition of human GAL4-fused RORbeta LBD transfected in HEK293T cell measured for 16 to 20 hrs by dual-glo luciferase assay; type: cell-based
T1 sequence (Q92753 whole entry): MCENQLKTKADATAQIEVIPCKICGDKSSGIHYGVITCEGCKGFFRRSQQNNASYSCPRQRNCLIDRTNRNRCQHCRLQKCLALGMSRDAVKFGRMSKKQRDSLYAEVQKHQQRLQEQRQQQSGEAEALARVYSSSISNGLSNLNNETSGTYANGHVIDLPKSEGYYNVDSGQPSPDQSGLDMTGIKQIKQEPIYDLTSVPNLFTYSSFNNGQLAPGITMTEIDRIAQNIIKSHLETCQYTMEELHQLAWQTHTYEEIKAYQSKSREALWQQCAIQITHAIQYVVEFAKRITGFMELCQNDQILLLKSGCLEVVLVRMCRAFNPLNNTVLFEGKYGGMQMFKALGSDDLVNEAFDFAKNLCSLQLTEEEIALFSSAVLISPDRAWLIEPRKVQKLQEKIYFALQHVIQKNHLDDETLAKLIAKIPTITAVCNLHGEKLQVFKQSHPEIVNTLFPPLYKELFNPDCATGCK

[11] = Half life in mouse at 0.3 mg/kg, iv measured at 2 to 1440 mins by LC-MS analysis; type: ADME, organism-based; details: in vivo, time 2-1440 min
[12] = Lipophilicity, log D of the compound at pH 7.4; type: physicochemical; details: buffer
[13] = test system: Mus musculus; test: Antiinflammatory activity against imiquimod-induced Balb/c mouse skin inflammation model assessed as decrease in skin thickening at 10 to 20 mg/kg, po measured for 13 days; type: functional, organism-based; details: dose 10-20 mg/kg, time 13.0 day
[14] = Clearance in mouse at 0.3 mg/kg, iv measured at 2 to 1440 mins by LC-MS analysis; type: ADME, organism-based; details: in vivo, time 2-1440 min
[15] = Half life in mouse at 1 mg/kg, po measured at 5 to 1440 mins by LC-MS analysis; type: ADME, organism-based; details: in vivo, time 5-1440 min
[16] = test system: Mus musculus; test: Antiinflammatory activity against imiquimod-induced Balb/c mouse skin inflammation model assessed as reduction in total psoriasis area at 20 mg/kg, po BID for 13 days; type: functional, organism-based; details: time 13.0 day
[17] = Tmax in mouse at 0.3 mg/kg, iv measured at 2 to 1440 mins by LC-MS analysis; type: ADME, organism-based; details: in vivo, time 2-1440 min
[18] = Toxicity in Balb/c mouse assessed as body weight loss at 5 to 20 mg/kg, po administered for 12 days; type: organism-based; details: in vivo, 288 h, dose 5-20 mg/kg, time 12 day
[19] = Tmax in mouse at 1 mg/kg, po measured at 5 to 1440 mins by LC-MS analysis; type: ADME, organism-based; details: in vivo, time 5-1440 min
[20] = AUC (0 to infinity) in mouse at 0.3 mg/kg, iv measured at 2 to 1440 mins by LC-MS analysis; type: ADME, organism-based; design: dose 0.3 mg/kg, time 2-1440 min, route iv; details: in vivo
[21] = Solubility of compound in aqueous buffer at pH 7.4; type: physicochemical
[22] = Metabolic stability in human liver microsomes assessed as parent compound remaining measured at 60 mins by HPLC-MS/MS analysis; type: ADME, Microsome; details: 1 h
[23] = Cmax in mouse at 1 mg/kg, po measured at 5 to 1440 mins by LC-MS analysis; type: ADME, organism-based; design: time upper 1440 min, time lower 5 min, dose 1 mg/kg, route po; details: in vivo
[24] = test system: Mus musculus; test: Antiinflammatory activity against imiquimod-induced Balb/c mouse skin inflammation model assessed as reduction in scaling at 5 to 20 mg/kg, po BID for 13 days; type: functional, organism-based; details: dose 5-20 mg/kg, time 13.0 day
[25] = Metabolic stability in human liver microsomes assessed as half life incubated for 5 to 30 mins by HPLC-MS/MS analysis; type: ADME, Microsome; details: microsomes, time 5-30 min
[26] = test system: Mus musculus; test: Antiinflammatory activity against imiquimod-induced Balb/c mouse skin inflammation model assessed as inhibition of IL-6 level at 20 mg/kg, po measured for 13 days; type: functional; design: scale not given: the % may be the effect or the level left; details: time 13 day
[27] = Metabolic stability in human liver assessed as intrinsic clearance incubated for 5 to 30 mins by HPLC-MS/MS analysis; type: ADME, tissue-based; details: liver (preparation not stated), time 5-30 min, read-out: CLH
[28] = Toxicity in Balb/c mouse assessed as inflammatory cell infiltration at 10 to 20 mg/kg, po administered for 13 days; type: organism-based; details: in vivo, 312 h, dose 10-20 mg/kg, time 13 day
[29] = test system: Mus musculus; test: Antiinflammatory activity against imiquimod-induced Balb/c mouse skin inflammation model assessed as inhibition of IL-17A level at 20 mg/kg, po measured for 13 days; type: functional; design: scale not given: the % may be the effect or the level left; details: time 13 day

Structure (SMILES): CCc1ccc(N(C2CCC2)S(=O)(=O)c2ccc3c(c2)C(O)CC(C2CCOCC2)O3)cc1 (centres undefined)
- Activity [1]: Active
- Activity [2]: 70.5%
- Activity [3]: Active
- Vd [4]: 1.54 L/kg
- AUC(0-t) [5]: 153 ng·h/mL
- Cmax [6]: 83 ng/mL
- AUC(0-inf) [7]: 298 ng·h/mL
- bioavailability [8]: 55%
- AUC(0-t) [9]: 285 ng·h/mL
- IC50 [10]: > 10 µM
- half-life [11]: 52.2 min
- logD [12]: 3.69
- Activity [13]: inactive
- clearance [14]: 38.6 mL/min/kg
- half-life [15]: 79.2 min
- Activity [16]: Active
- Tmax [17]: 1.52 h
- Activity [18]: Non-Toxic
- Tmax [19]: 2.32 h
- AUC(0-inf) [20]: 163 ng·h/mL
- solubility [21]: 8.68 µg/mL (≈ 18.4 µM)
- Stability [22]: 45.1%
- Cmax [23]: 94 ng/mL
- Activity [24]: Active
- t1/2 [25]: 49 min
- Activity [26]: 71.9%
- CLint scaled [27]: 27.1 mL/min/kg
- Activity [28]: Non-Toxic
- Activity [29]: 37.6%

From ChEMBL document CHEMBL5226347, “Discovery of Chromane-6-Sulfonamide Derivative as a Potent, Selective, and Orally Available Novel Retinoic Acid Receptor-Related Orphan Receptor γt Inverse Agonist” (J Med Chem, 2021)
